SMILES strings stand for the structures. Like-named read-outs stand apart in the source and are kept apart here.

For orientation: IC50 means the concentration that inhibits the measured activity by half. Low readings indicate inhibition by little substance, high ones a need for much substance.

For one test, the system named is HT-29 (Colon). Kind of test: 48 hr cytotoxicity, HT-29. Format: cell-based, human. As to the method: (§1) Human colon adenocarcinoma HT-29 (ATCC# HTB-38), prostate adenocarcinoma PC-3 (ATCC# CRL-1435), breast adenocarcinoma MDA-MB231 (ATCC# HTB-26), Multiple Myeloma RPMI 8226 (ATCC# CCL-155) and U266 (ATCC # TIB-196) cell lines and human normal fibroblast CCD-27sk (ATCC# CRL-1475) were all purchased from ATCC (Manassas, Va.). The cells were maintained in their respective ATCC recommended culture media at 37° C., 5% CO2 and 95% humidified air.
(§2) The cytotoxicity assays were performed by seeding individual cell lines at appropriate density in the 96 well flat-bottomed plates and allowed to attach for 24 hours at 37° C., 5% CO2 and 95% humidified air (RPMI 8226 and U266 cells were plated in 96 well plates on the day of compound addition). Serially diluted NPI-1387 was added in triplicate to cells at concentrations ranging from 160 nM to 20 μM. Final concentration of 0.25% (v/v) DMSO was used as the vehicle control. Cell viability was assessed 48 hours later by measuring the fluorescence of the reduction product of Resazurin by a Fusion microplate fluorometer (PerkinElmer) with λex=535 nm and λem=590 nm filters. The IC50 values (the drug concentration at which 50% of the maximal observed cytotoxicity is established) were calculated in XLFit 3.0 or XLFit 4.0 (ID Business Solutions Ltd) using a sigmoidal dose response model.

In test [1] the test system is MM cells with IL-6 or IGF-1. Description: protective effects of MM bone marrow microenvironment. The test is classed as cell-based.
A further test concerns the target IKKα (Mus musculus, UniProt Q60680). Format: cell-based. The settings on record: LPS-stimulated RAW264.7; 1, 5, 10 and 20 μM. As to the method:
(§3) Cells were treated with 1, 5, 10 and 20 μM of NPI-1387 for 1 hour and then stimulated with 10 ng/ml LPS for 10 or 30 min. To determine the phosphorylation of IRAK1, whole cell extracts were prepared in RIPA buffer [0.9% NaCl, 50 mM Tris-HCl (pH7.4), 1% Triton X-100, 1 mM EDTA, 0.25% Na-deoxycholic acid, 0.1% SDS, 1 mM Na3VO4, 1 mM NaF and protease inhibitors]. […] Following electro-transfer, the membranes were blocked in Blotto (5%, w/v) non-fat milk in 1×TBST [20 mM Tris, 0.8% (w/v) NaCl, pH 7.6, 0.1% (v/v) Tween 20]. Membranes were then incubated with primary antibodies against IRAK1 (Santa Cruz Biotechnology), total IκBα (Cell Signaling Technology), phospho-IκBα (Cell Signaling Technology) and Tubulin (Lab Vision) in Blotto for 2 hours. The membranes were washed in TBST and (where necessary) incubated with the HRP-conjugated secondary antibody in Blotto for 1 hour before washing extensively with TBST. HRP activity was visualized by utilizing either SuperSignal West Pico or Dura chemiluminescent detection systems (Pierce Biotechnology). […] The protein samples were separated by 10% NuPAGE MES precast gels (Invitrogen) and the extent of GST-IκBα phosphorylation was evaluated by western blotting using the antibody against phospho-IκBα (Cell Signaling Technology).

The test system of the next test is IRAK1. The test is classed as cell-based. The settings on record: LPS-stimulated RAW264.7; 1, 5, 10 and 20 μM. As to the method:
as §3

For a further test, the system named is PC-3 colony formation. Description: PC-3 clonogenicity assay. Format: cell-based. As to the method: PC-3 cells in 10 cm tissue culture dishes (200 cells/dish) were treated with 5 μM, 10 μM and 20 μM NPI-1387 for 0.5-24 hours in triplicates. DMSO was used as vehicle control. After each time point of drug treatment, the medium was removed, the dishes were washed two times with Dulbecco's phosphate buffered saline (DPBS), and supplied with fresh medium. Cells were cultured for 10 days with the medium replenished every 3 days. On the 10th day, dishes were washed with cold DPBS, fixed for 10 minutes in ice-cold 100% methanol at 4° C., and the colonies were stained with 0.5% (w/v) crystal violet. Colonies were counted manually, and the results expressed as % of colonies in relation to their respective vehicle control.

For another test, the system named is HS766T cells. Description: apoptosis by PI FACS analysis, HS766T. The test is classed as cell-based, human. The settings on record: combination treatment with Salinosporamide A, increased from 4%. The text has this:
Novel diterpene inhibitors of NFκB derived from acanthoic acid (NPI-1342 (Formula IIB-a1) and NPI-1387; compound 24 under scheme 4 above) show measurable effects in human pancreatic cancer cell lines in vitro. Seven of the nine cell lines were moderately sensitive to apoptosis induced by death receptor ligand Tumor Necrosis Factor (TNF) related apoptosis-inducing ligand (TRAIL). […] Specific silencing of NFkB/p65 expression mimicked these effects. Furthermore, combination treatment of Salinosporamide A and either NPI-1342 or NPI-1387 led to induction of apoptosis as measured by PI FACS analysis. Specifically, levels of DNA fragmentation increased from 4% to 50% in HS766T cells and from 4% to 52% in Panc1 cells. The inhibitory effects of NPI-1342, NPI-1387 on NFκB were evaluated by Electromobility Shift Assays and confirmed by confocal microscopy.
On the technique in general: A flow cytometer gives signals particle by particle.

The test system of a further test is RPMI 8226 (MM). Kind of test: 48 hr cytotoxicity, RPMI 8226. The test is classed as cell-based, human. As to the method: as §1, §2
In test [2] the test system is cells obtained from Bortezomib-refractory MM patient. Description: viability of purified patient MM cells. The test is classed as cell-based. To be noted: in vitro. The text has this:
Besides nuclear condensation, NF-KB inhibitor triggered proteolytic cleavage of poly (ADP ribose) polymerase (PARP), a hallmark of apoptosis.

In test [3] the test system is CCD-27sk (human normal skin fibroblast). Kind of test: 48 hr cytotoxicity, CCD-27sk. To be noted: 48 hr drug exposure. The test is classed as cell-based. As to the method:
as §1, §2

Another test concerns LPS/D-Gal administration. Kind of test: mortality after LPS/D-Gal administration. To be noted: i.p., TTL3 administration 45 minutes prior to LPS. The test is classed as in vivo.

Chain of IKKα (Q60680 whole entry): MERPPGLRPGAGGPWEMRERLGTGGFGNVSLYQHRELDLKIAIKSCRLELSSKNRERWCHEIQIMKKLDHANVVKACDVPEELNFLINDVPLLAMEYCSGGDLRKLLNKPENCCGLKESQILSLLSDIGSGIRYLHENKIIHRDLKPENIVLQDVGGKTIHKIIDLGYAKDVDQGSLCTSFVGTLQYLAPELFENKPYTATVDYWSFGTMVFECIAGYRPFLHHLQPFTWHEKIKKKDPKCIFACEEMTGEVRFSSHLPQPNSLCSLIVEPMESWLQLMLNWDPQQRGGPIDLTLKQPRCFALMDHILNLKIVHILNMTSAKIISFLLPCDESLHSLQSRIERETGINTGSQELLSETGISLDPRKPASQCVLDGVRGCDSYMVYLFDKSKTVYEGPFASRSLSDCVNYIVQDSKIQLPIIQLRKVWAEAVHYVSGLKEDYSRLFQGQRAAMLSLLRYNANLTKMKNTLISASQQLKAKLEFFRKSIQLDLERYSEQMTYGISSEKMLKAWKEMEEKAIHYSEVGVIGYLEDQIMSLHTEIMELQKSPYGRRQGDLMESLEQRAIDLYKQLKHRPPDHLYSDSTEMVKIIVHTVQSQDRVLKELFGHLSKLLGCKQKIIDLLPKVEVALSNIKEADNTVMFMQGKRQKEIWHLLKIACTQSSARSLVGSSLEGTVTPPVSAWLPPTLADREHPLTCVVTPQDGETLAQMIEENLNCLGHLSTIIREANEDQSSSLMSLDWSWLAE

With `C=CC(=O)C1(C)CCCC2(C)C3=CCC(C)(C=C)C[C@@H]3CC[C@H]12` (stereo in doubt) [NPI-1387, 1-[(1S,4aS,7R)-1,4a,7-Trimethyl-7-vinyl-1,2,3,4,4a,6,7,8,8a,9,10,10a-dodecahydro-1-phenanthrenyl]-2-propen-1-one], the IC50 in the test on HT-29 (Colon) is 13 ± 6 µM; in the test with HT-29 (Colon) (Homo sapiens, HT-29, 48 h), 14 ± 6 µM; with RPMI 8226 (MM), 5.5 ± 0.8 µM; in the test with RPMI 8226 (MM) (Homo sapiens, RPMI-8226, 48 h) it was 5.1 ± 1 µM; in test [3], no less than 20 µM. In addition, in test [1], the “protective effects of IL-6 or IGF-1” value was “does overcome the protective effects of IL-6 or IGF-1”. Also, on IKKα, the “kinase activity of IKKα” value is listed as “reduces kinase activity of IKKα in a dose-dependent manner”. The “phosphorylation of IRAK1 (and its downstream target IκBα)” value in the test on IRAK1 is on record as “inhibits the phosphorylation of IRAK1”. For the same compound, the PC-3 colony formation result is “inhibits the colony formation of PC-3 cancer cells in a time-dependent and dose-dependent fashion” in the test on PC-3 colony formation (5 μM, 10 μM and 20 μM for 0.5-24 hours); “completely abolish” with PC-3 colony formation (exposure of 6 hr to 20 μM). The “levels of DNA fragmentation” value with HS766T cells turned out to be 50%. The “viability of cells from Bortezomib-refractory MM patient” value in test [2] is “decreases the viability”.

Regarding `C=C[C@@]1(C)CCC=C2[C@H]1CC[C@@H]1[C@](C)(C(=O)OC)CCC[C@@]21C` [TTL3], in the test on LPS/D-Gal administration, the “Mortality 24 hours” value is given as 2/10 and the “Mortality 48 hours” value is 2/10.

The record behind these values is patent US7893299B2, “Interleukin-1 and tumor necrosis factor-αmodulators; syntheses of such modulators and methods of using such modulators” (Nereus Pharmaceuticals, Inc., priority 2005, dated 2011).
